Data: paper PMC6836573, “Mitochondria-targeting fluorescent molecules for high efficiency cancer growth inhibition and imaging” (Chemical Science, 2019)
Entries after “also recorded” stand apart in the source; their conditions may differ.

Assays:
[1] = tested on: bladder cancer T24 cell; test: Cytotoxicity assay (direct cell counting), T24; type: cell-based
Procedure: (§1) Cell culture, imaging, and cytotoxicity assay
(§2) RPMI-1640 medium. NIH/3T3 was cultured in DMEM medium. A549 was cultured in F-12K medium. T24 were cultured in McCoy's 5A medium. All culture mediums were supplemented with 10% fetal bovine serum. The cells were incubated at 37 °C in an atmosphere containing 5% CO 2. […]
(§3) Cytotoxicity assay. All test cell lines were incubated in 96-well plates overnight at a density of 3000 cells/well. The culture medium was replaced with 200 μL of culture medium, into which the testing compound was dispersed at various concentrations (1.95 - 500 μM). After incubating for 3 days, the viable cell numbers were checked and directly counted under microscopy (10X). A minimum of 1mm×1mm area was counted from each of at least three widely separated regions of cell culture. The cell proliferation rate was calculated by the following formula: cell proliferation rate (%) = (average cell number of sample wells / average cell number of control wells) ×100%.
(§4) The intact culture medium was evaluated as a control. […]

[2] = tested on: H2228 NSCLC cell line; test: Cytotoxicity assay, H2228; type: cell-based; conditions: Homo sapiens, NCI-H2228, H2228 cells
Procedure: as §1, §2, §3, §4
(§5) All animal experiments were performed in compliance with the Guidelines for the Care and Use of Research Animals as established by the Stanford University Animal Studies Committee. Female athymic nude mice (nu/nu) from 4−6 weeks old were obtained from Charles River Laboratories (Boston, MA, USA) and kept under sterile conditions. 5 × 106 human lung adenocarcinoma

[3] = tested on: NSCLC H838 cell; test: Cytotoxicity assay (direct cell counting), H838; type: cell-based; conditions: Homo sapiens, NCI-H838, 72 h, H838 cells; 3 days incubation, viable cells counted
Procedure: as §1, §2, §3, §4, §5

[4] = tested on: human lung cancer HCC827 xenograft; test: HCC827 s.c. tumor model treatment; type: in vivo, nude mice
Procedure: HCC827 s.c. tumor model treatment and imaging
as §5, with “adenocarcinoma […]” for “adenocarcinoma”
HCC827 cells suspended in 150 µL of PBS were inoculated subcutaneously in the right shoulder […]
When the tumors reached ~3 mm in diameter, the tumor-bearing mice were administered i.v. with 5BMF (dissolved in 150 µL PBS, with 2 µL DMSO) at 15 mg/Kg on days 1, 3, 5, 7, 9, 11, 13, 15, 17, 19, 21. Correspondingly, untreated tumor-bearing mice serving as controls were administered i.v. with 150 µL 1× PBS pH 7.4 (with 2 µL DMSO) on the same days as the treated mice. Ten mice were used for each group. Length and width of the elliptical tumors were measured by Vernier caliper after every intravenous injection. Modified ellipsoid formula ½ (Length × Width2) was used to calculate the tumor size. The tumor growth was calculated with the ratio of final volume (FV) minus initial volume (IV) to initial volume (IV). […]
The tumor tissues and some important organs such as liver, kidney, lung, heart were isolated. After frozen, the specimens sectioned at 5-8 µm and processed for a standard hematoxylin-eosin (H&E) staining. Slides were viewed and photographed with the Nanozoomer Digital Pathology Image […]
The body weights of mice are presented as means ± standard deviation (SD) of n independent measurements. The tumor volumes are presented as means ± standard error of mean (SEM) of n independent measurements. Statistical analysis was performed using a Student’s t-test or Mann-Whitney U test. Statistical significance was assigned for P values <0.05. […]

[5] = tested on: A549 NSCLC cell line; test: Cytotoxicity assay, A549; type: cell-based; conditions: Homo sapiens; A549 cells
Procedure: as §1, §2, §3, §4

[6] = tested on: HCC4006 NSCLC cell line; test: Cytotoxicity assay, HCC4006; type: cell-based; conditions: Homo sapiens; HCC4006 cells
Procedure: as §1, §2, §3, §4, §5

[7] = tested on: H1437 NSCLC cell line; test: Cytotoxicity assay, H1437; type: cell-based; conditions: Homo sapiens, NCI-H1437; H1437 cells
Procedure: as §1, §2, §3, §4

[8] = tested on: HCC827 NSCLC cell line; test: Cytotoxicity assay, HCC827; type: cell-based; conditions: Homo sapiens; HCC827 cells
Procedure: as §1, §2, §3, §4

[9] = tested on: H838 cells' mitochondria; test: Effect of membrane potential (high K+ medium, FCCP) on 5BMF accumulation; type: cell-based
Procedure: To verify that F16 derivatives preserve the same property, H838 cells were preincubated in high K^+ medium (137 mM) to depolarize the plasma membrane, then 5BMF (3 μM) was added and incubated for 30 min. […] As with other DLCs, the selectivity of F16s for mitochondria is driven by the negative transmembrane potential.[18]
Mitotracker® Red (Molecular Probes) and Hoechst (Thermo Scientific) were added to the medium to stain the mitochondria and nuclei, following the manufacturer’s procedures. Cells were photographed as previously described using a 63× oil or 20× objective lens.
The effect of membrane potential on 5BMF accumulation was performed through staining HCC827 cells in low K+ and high K+ buffer, instead of RPMI-1640 culture medium. Low K+ buffer contains 137 mM NaCl, 3.6 mM KCI, 0.5 mM MgCl2, 1.8 mM CaCl2 of RPMI-1640 medium (GIBCO). […]
Cytotoxicity assay. […] After incubating for 3 days, the viable cell numbers were checked and directly counted under microscopy (10X). A minimum of 1mm×1mm area was counted from each of at least three widely separated regions of cell culture. The cell proliferation rate was calculated by the following formula: cell proliferation rate (%) = (average cell number of sample wells / average cell number of control wells) ×100%.
as §4

[10] = tested on: H2030 NSCLC cell line; test: Cytotoxicity assay, H2030; type: cell-based; conditions: Homo sapiens, NCI-H2030; H2030 cells
Procedure: as §1, §2, §3, §4

[11] = tested on: H1693 NSCLC cell line; test: Cytotoxicity assay, H1693; type: cell-based; conditions: Homo sapiens, NCI-H1693; H1693 cells
Procedure: as §1, §2, §3, §4

## Cc1cc(Br)cc2c(/C=C/c3cc[n+](C)cc3)c[nH]c12 [5BMF]
[1]; 3T3 versus T24 and H838
  selectivity indices: > 10
[1]; Homo sapiens, T-24, 72 h, T24 cells, 3 days incubation, viable cells counted
  IC50: 820 nM
[2]
  IC50: ~50 nM
[3]
  IC50: 360 nM
[4]; 15 mg/kg IV every other day
  day from which inhibitory tumor growth effects appeared: 9 days
[4]; 15 mg/kg IV every other day, day 1-21, n = 10, PBS control ∼16 times
  increase of mean tumor volume after the 21 day-treatment period: ~2 times
[4]; 15 mg/kg IV, 21 days of treatment
  toxicity to mice: no obvious toxicity
[4]; 15 mg/kg IV, 21 days, p = 0.0426 at day 21
  tumor growth compared to the PBS treated control group: significantly suppressed; also recorded: suppressed dramatically; also recorded: decreased dramatically
[4]; 15 mg/kg IV, 21 days, p = 0.477
  body weight between control and treated groups: no significant difference
[4]; 15 mg/kg IV, over four weeks, compared to control
  major organs' histologic examination (H&E): did not reveal any significant microscopic lesions
[4]; HCC827 tumor, 5BMF-treated
  tumor pathologic section H&E staining: caused tumor inflammatory cell infiltration, fibrous tissue proliferation, and cell apoptosis
[5]
  IC50: 727 nM
[6]
  IC50: 106 nM
[7]
  IC50: 1430 nM
[8]
  IC50: 1990 nM
[9]; H838 cells, 3 μM, 30 min, high K+ 137 mM, low K+ 3.6 mM
  accumulation in mitochondria in high K+ medium versus low K+ medium: much less 5BMF accumulation in mitochondria
[9]; cells preloaded with 5BMF, FCCP 5 µM, 1 and 3 min
  mitochondrial staining after addition of FCCP: immediately decayed and diffused into the cytoplasm
[10]
  IC50: 102 nM
[11]
  IC50: 1180 nM
